According to patent US8802597B2, “Herbicidal pyrimidines” (E I du Pont de Nemours and Company, priority 2003, dated 2014):

Tests used:
Assay type in all cases: in vivo
rice (Oryza sativa) = test: Test B flooded paddy test; conditions: Flood, 1000 g ai/ha; scale 0 to 100
Method in brief: (§1)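 Plants were grown to the 2-leaf stage before treatment, then kept in a greenhouse for 13 to 15 days. Injury was rated visually against untreated controls on a 0 to 100 scale, where 0 is no effect and 100 is complete control.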

[1] = tested on: duck salad (Heteranthera limosa); test: Test B flooded paddy test; conditions: Flood, 1000 g ai/ha; scale 0 to 100
Method in brief: as §1

[2] = tested on: barnyardgrass (Echinochloa crus-galli); test: Test B flooded paddy test; conditions: Flood, 1000 g ai/ha; scale 0 (no effect) to 100 (complete control)
Method in brief: as §1

[3] = tested on: umbrella sedge (Cyperus difformis); test: Test B flooded paddy test; conditions: Flood, 1000 g ai/ha; scale 0 to 100
Method in brief: as §1

[4] = tested on: crabgrass (Digitaria sanguinalis); test: Test B pre/postemergence
Text: (§2) Seeds selected from barnyardgrass (Echinochloa crus-galli), Surinam grass (Brachiaria decumbens), cocklebur (Xanthium strumarium), corn (Zea mays), crabgrass (Digitaria sanguinalis), giant foxtail (Setaria faberii), lambsquarters (Chenopodium album), morningglory (Ipomoea coccinea), pigweed (Amaranthus retroflexus), velvetleaf (Abutilon theophrasti), and wheat (Triticum aestivum) were planted and treated preemergence with test chemicals formulated in a non-phytotoxic solvent mixture which included a surfactant.
(§3) At the same time, plants selected from these crop and weed species and also blackgrass (Alopecurus myosuroides) and wild oat (Avena fatua) were treated with postemergence applications of test chemicals formulated in the same manner. Plants ranged in height from 2 to 18 cm (1- to 4-leaf stage) for postemergence treatments. Plant species in the flooded paddy test consisted of rice (Oryza sativa), umbrella sedge (Cyperus difformis), duck salad (Heteranthera limosa) and barnyardgrass (Echinochloa crus-galli) grown to the 2-leaf stage for testing. Treated plants and controls were maintained in a greenhouse for 13 to 15 days, after which time all species were compared to controls and visually evaluated. Plant response ratings, summarized in Table B, are based on a scale of 0 to 100 where 0 is no effect and 100 is complete control. A dash (-) response means no test result.

[5] = tested on: wheat (Triticum aestivum); test: Test B pre/postemergence
Text: as §2, §3

[6] = tested on: barnyardgrass (Echinochloa crus-galli); test: Test B pre/postemergence
Text: as §2, §3

[7] = tested on: velvetleaf (Abutilon theophrasti); test: Test B pre/postemergence
Text: as §2, §3

[8] = tested on: lambsquarters (Chenopodium album); test: Test B pre/postemergence
Text: as §2, §3

corn (Zea mays) = test: Test B pre/postemergence
Text: as §2, §3

[9] = tested on: cocklebur (Xanthium strumarium); test: Test B pre/postemergence
Text: as §2, §3

[10] = tested on: Surinam grass (Brachiaria decumbens); test: Test B pre/postemergence
Text: as §2, §3

[11] = tested on: giant foxtail (Setaria faberii); test: Test B pre/postemergence
Text: as §2, §3

[12] = tested on: pigweed (Amaranthus retroflexus); test: Test B pre/postemergence
Text: as §2, §3

[13] = tested on: morningglory (Ipomoea coccinea); test: Test B pre/postemergence
Text: as §2, §3

wild oat (Avena fatua) = test: Test B postemergence; conditions: for Oat, Wild plant response rating: 125 g ai/ha, scale 0 to 100 (0 no effect, 100 complete control); for Plant response rating, Oat, Wild: 500 g ai/ha, scale 0 to 100
Method in brief: (§4)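 Under greenhouse conditions, seeded pots and young plants (1- to 4-leaf, 2 to 18 cm) were treated at the same time with test chemicals in a non-phytotoxic solvent mixture containing surfactant. Response was assessed visually after 13 to 15 days, from 0 (no effect) to 100 (complete control).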

[14] = tested on: blackgrass (Alopecurus myosuroides); test: Test B postemergence; conditions: for Blackgrass plant response rating: 125 g ai/ha, scale 0 to 100 (0 no effect, 100 complete control); for Plant response rating, Blackgrass: 500 g ai/ha, scale 0 to 100
Method in brief: as §4

[15] = Postemergence, 125 g ai/ha, scale 0 to 100 (0 no effect, 100 complete control)
[16] = Postemergence, 500 g ai/ha, scale 0 to 100
[17] = Preemergence, 125 g ai/ha, scale 0 to 100 (0 no effect, 100 complete control)
[18] = Preemergence, 500 g ai/ha, scale 0 to 100 (0 no effect, 100 complete control)

## CC=NNc1nc(C2CC2)nc(C(=O)OC)c1Br [Compound 124]
Rice (Oryza sativa)
  Plant response rating, Rice: 0
[1]
  Plant response rating, Ducksalad: 0
[2]
  Plant response rating, Barnyardgrass: 0
[3]
  Plant response rating, Sedge, Umbrella: 0
[4]; [15]
  Crabgrass plant response rating: 10
[4]; [16]
  Plant response rating, Crabgrass: 40
[4]; [17]
  Plant response rating, Crabgrass: 0
[4]; [18]
  Plant response rating, Crabgrass: 0
[5]; [15]
  Wheat plant response rating: 0
[5]; [16]
  Plant response rating, Wheat: 30
[5]; [17]
  Plant response rating, Wheat: 0
[5]; [18]
  Plant response rating, Wheat: 0
[6]; [15]
  Barnyardgrass plant response rating: 0
[6]; [16]
  Plant response rating, Barnyardgrass: 40
[6]; [17]
  Plant response rating, Barnyardgrass: 0
[6]; [18]
  Plant response rating, Barnyardgrass: 0
[7]; [15]
  Velvetleaf plant response rating: 20
[7]; [16]
  Plant response rating, Velvetleaf: 50
[7]; [17]
  Plant response rating, Velvetleaf: 20
[7]; [18]
  Plant response rating, Velvetleaf: 50
[8]; [15]
  Lambsquarters plant response rating: 40
[8]; [16]
  Plant response rating, Lambsquarters: 90
[8]; [17]
  Plant response rating, Lambsquarters: 0
[8]; [18]
  Plant response rating, Lambsquarters: 70
Corn (Zea mays); [15]
  Corn plant response rating: 0
Corn (Zea mays); [16]
  Plant response rating, Corn: 0
Corn (Zea mays); [17]
  Plant response rating, Corn: 0
Corn (Zea mays); [18]
  Plant response rating, Corn: 0
[9]; [15]
  Cocklebur plant response rating: 30
[9]; [16]
  Plant response rating, Cocklebur: 80
[9]; [17]
  Plant response rating, Cocklebur: 10
[9]; [18]
  Plant response rating, Cocklebur: 60
[10]; [15]
  Surinam Grass plant response rating: 0
[10]; [16]
  Plant response rating, Surinam Grass: 0
[10]; [17]
  Plant response rating, Surinam Grass: 0
[10]; [18]
  Plant response rating, Surinam Grass: 0
[11]; [15]
  Foxtail, Giant plant response rating: 10
[11]; [16]
  Plant response rating, Foxtail, Giant: 20
[11]; [17]
  Plant response rating, Foxtail, Giant: 0
[11]; [18]
  Plant response rating, Foxtail, Giant: 0
[12]; [15]
  Pigweed plant response rating: 50
[12]; [16]
  Plant response rating, Pigweed: 90
[12]; [17]
  Plant response rating, Pigweed: 20
[12]; [18]
  Plant response rating, Pigweed: 70
[13]; [15]
  Morningglory plant response rating: 50
[13]; [16]
  Plant response rating, Morningglory: 100
[13]; [17]
  Plant response rating, Morningglory: 10
[13]; [18]
  Plant response rating, Morningglory: 60
Wild oat (Avena fatua)
  Oat, Wild plant response rating: 0
  Plant response rating, Oat, Wild: 30
[14]
  Blackgrass plant response rating: 0
  Plant response rating, Blackgrass: 40

## CCOC(=O)c1nc(C2CC2)nc(NCCOC)c1Br [Compound 39]
Rice (Oryza sativa)
  Plant response rating, Rice: 0
[1]
  Plant response rating, Ducksalad: 0
[2]
  Plant response rating, Barnyardgrass: 0
[3]
  Plant response rating, Sedge, Umbrella: 0
[4]; [15]
  Crabgrass plant response rating: 0
[4]; [16]
  Plant response rating, Crabgrass: 40
[4]; [17]
  Plant response rating, Crabgrass: 0
[4]; [18]
  Crabgrass plant response rating: 50
[5]; [15]
  Wheat plant response rating: 0
[5]; [16]
  Plant response rating, Wheat: 0
[5]; [17]
  Plant response rating, Wheat: 0
[5]; [18]
  Plant response rating, Wheat: 10
[6]; [15]
  Barnyardgrass plant response rating: 0
[6]; [16]
  Plant response rating, Barnyardgrass: 70
[6]; [17]
  Plant response rating, Barnyardgrass: 0
[6]; [18]
  Barnyardgrass plant response rating: 20
[7]; [15]
  Velvetleaf plant response rating: 40
[7]; [16]
  Plant response rating, Velvetleaf: 70
[7]; [17]
  Plant response rating, Velvetleaf: 0
[7]; [18]
  Velvetleaf plant response rating: 30
[8]; [15]
  Lambsquarters plant response rating: 70
[8]; [16]
  Plant response rating, Lambsquarters: 90
[8]; [17]
  Plant response rating, Lambsquarters: 50
[8]; [18]
  Lambsquarters plant response rating: 100
Corn (Zea mays); [15]
  Corn plant response rating: 0
Corn (Zea mays); [16]
  Plant response rating, Corn: 50
Corn (Zea mays); [17]
  Plant response rating, Corn: 30
Corn (Zea mays); [18]
  Corn plant response rating: 50
[9]; [15]
  Cocklebur plant response rating: 30
[9]; [16]
  Plant response rating, Cocklebur: 50
[9]; [17]
  Plant response rating, Cocklebur: 10
[9]; [18]
  Cocklebur plant response rating: 30
[10]; [15]
  Surinam Grass plant response rating: 0
[10]; [16]
  Plant response rating, Surinam Grass: 30
[10]; [17]
  Plant response rating, Surinam Grass: 0
[10]; [18]
  Surinam Grass plant response rating: 0
[11]; [15]
  Foxtail, Giant plant response rating: 0
[11]; [16]
  Plant response rating, Foxtail, Giant: 30
[11]; [17]
  Plant response rating, Foxtail, Giant: 0
[11]; [18]
  Foxtail, Giant plant response rating: 20
[12]; [15]
  Pigweed plant response rating: 50
[12]; [16]
  Plant response rating, Pigweed: 70
[12]; [17]
  Plant response rating, Pigweed: 70
[12]; [18]
  Pigweed plant response rating: 100
[13]; [15]
  Morningglory plant response rating: 80
[13]; [16]
  Plant response rating, Morningglory: 100
[13]; [17]
  Plant response rating, Morningglory: 30
[13]; [18]
  Morningglory plant response rating: 70
Wild oat (Avena fatua)
  Oat, Wild plant response rating: 0
  Plant response rating, Oat, Wild: 0
[14]
  Blackgrass plant response rating: 0
  Plant response rating, Blackgrass: 0
